Activity calls are given as the source filed them. No cut-off for these calls is given here.
Columns and labels:
[1] = Selectivity index, ratio of CC50 for cytotoxicity against human H1-HeLa cells to EC50 for antiviral activity against Human rhinovirus A71 infected in human H1-HeLa cells; format: toxicity, cell-based; conditions: for selectivity ratio: H1-HeLa cells, read-out: Ratio CC50/EC50
rhinovirus A21 = experiment: Antiviral activity against Human rhinovirus A21 infected in human H1-HeLa cells assessed as reduction in virus induced cytopathic effect incubated for 3 days by MTT assay; format: functional, organism-based
rhinovirus B14 [2] = experiment: Antiviral activity against Human rhinovirus B14 infected in human H1-HeLa cells assessed as reduction in virus induced cytopathic effect incubated for 3 days by MTT assay; format: functional, organism-based
[3] = Antiviral activity against Human rhinovirus A71 infected in human H1-HeLa cells assessed as reduction in virus induced cytopathic effect incubated for 3 days by MTT assay; format: functional, cell-based
[4] = (§1) Cytotoxicity against human H1-HeLa cells assessed as reduction in cell viability by MTT assay; format: toxicity, cell-based; conditions: H1-HeLa cells
rhinovirus B14 [5] = experiment: Antiviral activity against Human rhinovirus B14 infected in human H1-HeLa cells assessed as reduction in viral titre at 0.1 uM pretreated for 1 hr followed by viral infection and measured after 6 hrs by time-of-addition assay; format: functional, organism-based
CYP2C9 = CYP2C9 (Homo sapiens, UniProt P11712); experiment: Inhibition of human CYP2C9 at 10 uM incubated for 20 mins in presence of NADPH regenerating system by luminescence assay relative to control; format: ADME
CYP2C9, sequence (P11712 whole entry): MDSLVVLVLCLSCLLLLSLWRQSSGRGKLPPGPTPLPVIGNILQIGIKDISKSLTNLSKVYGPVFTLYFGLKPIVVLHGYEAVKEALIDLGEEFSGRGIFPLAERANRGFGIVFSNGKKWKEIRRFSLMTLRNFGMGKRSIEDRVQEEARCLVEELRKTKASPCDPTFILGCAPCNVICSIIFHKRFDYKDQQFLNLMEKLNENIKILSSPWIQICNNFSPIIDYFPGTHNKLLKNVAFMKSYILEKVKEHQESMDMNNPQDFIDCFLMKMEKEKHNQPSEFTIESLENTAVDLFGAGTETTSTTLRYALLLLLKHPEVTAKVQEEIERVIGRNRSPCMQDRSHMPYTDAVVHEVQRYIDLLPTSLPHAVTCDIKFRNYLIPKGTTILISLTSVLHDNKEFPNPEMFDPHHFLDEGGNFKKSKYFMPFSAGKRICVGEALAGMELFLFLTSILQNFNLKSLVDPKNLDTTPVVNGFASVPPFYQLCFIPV

[6] = Cytotoxicity against human H1-HeLa cells transfected with Enterovirus A71 replicon RNAs assessed as reduction in cell viability by CellTiter-Glo luminescent cell viability assay; format: toxicity, cell-based
rhinovirus A1B = experiment: Antiviral activity against Rhinovirus A1B infected in human H1-HeLa cells assessed as reduction in virus induced cytopathic effect incubated for 3 days by MTT assay; format: functional, organism-based; conditions: Rhinovirus A, 72 h
[7] = Tmax in Sprague-Dawley rat at 10 mg/kg, po by LC/MS/MS analysis; format: ADME, organism-based; conditions: in vivo
[8] = Selectivity index, ratio of CC50 for cytotoxicity against human H1-HeLa cells to EC50 for antiviral activity against Human rhinovirus B14 infected in human H1-HeLa cells; format: toxicity, cell-based
rhinovirus B86 = experiment: Antiviral activity against Human rhinovirus 86 infected in human H1-HeLa cells assessed as reduction in virus induced cytopathic effect incubated for 3 days by MTT assay; format: functional, organism-based; conditions: Rhinovirus B, 72 h
Coxsackievirus B1 = experiment: Antiviral activity against Human coxsackievirus B1 infected in human H1-HeLa cells assessed as reduction in virus induced cytopathic effect incubated for 2 days by MTT assay; format: functional, organism-based; conditions: Enterovirus B, 48 h
[9] = Antiviral activity against Human rhinovirus 42 infected in human H1-HeLa cells assessed as reduction in virus induced cytopathic effect incubated for 3 days by MTT assay; format: functional, cell-based; conditions: Rhinovirus B, 72 h
Rhinovirus A [10] = experiment: Antiviral activity against Rhinovirus A33 infected in human H1-HeLa cells assessed as reduction in virus induced cytopathic effect incubated for 3 days by MTT assay; format: functional, cell-based; conditions: Rhinovirus A, 33, H1-HeLa, 72 h
Rhinovirus B [11] = experiment: Antiviral activity against Rhinovirus B27 infected in human H1-HeLa cells assessed as reduction in virus induced cytopathic effect incubated for 3 days by MTT assay; format: functional, organism-based; conditions: Rhinovirus B, 27, H1-HeLa, 72 h
[12] = AUClast in Sprague-Dawley rat at 10 mg/kg, po by LC/MS/MS analysis; format: ADME, organism-based; set-up: time 0 - last, dose 10 mg/kg, route po; conditions: in vivo
Rhinovirus B [13] = experiment: Antiviral activity against Rhinovirus B91 infected in human H1-HeLa cells assessed as reduction in virus induced cytopathic effect incubated for 3 days by MTT assay; format: functional, organism-based; conditions: Rhinovirus B, 91, H1-HeLa, 72 h
Poliovirus 3 = experiment: Antiviral activity against Human poliovirus 3 infected in human H1-HeLa cells assessed as reduction in virus induced cytopathic effect incubated for 2 days by MTT assay; format: functional, organism-based; conditions: Enterovirus C, 48 h
[14] = Metabolic stability in pooled rat liver microsomes at 1 uM incubated for 30 mins in presence of NADPH regenerating system by LC/MS/MS analysis; format: ADME, Microsome; conditions: 0.5 h
[15] = Half life in Sprague-Dawley rat at 10 mg/kg, po by LC/MS/MS analysis; format: ADME, organism-based; conditions: in vivo
[16] = AUCinfinity in Sprague-Dawley rat at 10 mg/kg, po by LC/MS/MS analysis; format: ADME, organism-based; set-up: time infinity, dose 10 mg/kg, route po; conditions: in vivo
rhinovirus A2 = experiment: Antiviral activity against Human rhinovirus 2 infected in human H1-HeLa cells assessed as reduction in virus induced cytopathic effect incubated for 3 days by MTT assay; format: functional, organism-based; conditions: Rhinovirus A, 72 h
CYP3A4 = CYP3A4 (Homo sapiens, UniProt P08684); experiment: Inhibition of human CYP3A4 at 10 uM incubated for 20 mins in presence of NADPH regenerating system by luminescence assay relative to control; format: ADME
CYP3A4, sequence (P08684 whole entry): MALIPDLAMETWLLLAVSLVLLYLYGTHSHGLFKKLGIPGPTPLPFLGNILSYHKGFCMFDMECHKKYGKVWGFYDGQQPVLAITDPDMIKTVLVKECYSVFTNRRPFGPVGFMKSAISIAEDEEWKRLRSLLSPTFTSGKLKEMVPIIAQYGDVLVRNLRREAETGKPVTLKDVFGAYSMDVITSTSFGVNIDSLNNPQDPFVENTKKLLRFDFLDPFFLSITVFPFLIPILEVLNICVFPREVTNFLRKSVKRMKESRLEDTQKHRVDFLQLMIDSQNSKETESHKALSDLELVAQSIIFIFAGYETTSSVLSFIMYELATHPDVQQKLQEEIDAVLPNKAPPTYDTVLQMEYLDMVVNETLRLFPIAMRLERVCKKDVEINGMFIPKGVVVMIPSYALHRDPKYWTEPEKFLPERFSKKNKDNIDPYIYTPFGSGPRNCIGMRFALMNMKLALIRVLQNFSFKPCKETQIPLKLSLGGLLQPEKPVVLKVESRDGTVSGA

[17] = Selectivity index, ratio of CC50 for cytotoxicity against human H1-HeLa cells to EC50 for antiviral activity against Human rhinovirus A21 infected in human H1-HeLa cells; format: toxicity, cell-based
[18] = Metabolic stability in pooled human liver microsomes at 1 uM incubated for 30 mins in presence of NADPH regenerating system by LC/MS/MS analysis; format: ADME, Microsome; conditions: 0.5 h
[19] = Cmax in Sprague-Dawley rat at 10 mg/kg, po by LC/MS/MS analysis; format: ADME, organism-based; set-up: dose 10 mg/kg, route po; conditions: in vivo
CYP1A2 = target: T1, CYP1A2 (Homo sapiens, UniProt P05177); experiment: Inhibition of human CYP1A2 at 10 uM incubated for 20 mins in presence of NADPH regenerating system by luminescence assay relative to control; format: ADME
T1 sequence (P05177 whole entry): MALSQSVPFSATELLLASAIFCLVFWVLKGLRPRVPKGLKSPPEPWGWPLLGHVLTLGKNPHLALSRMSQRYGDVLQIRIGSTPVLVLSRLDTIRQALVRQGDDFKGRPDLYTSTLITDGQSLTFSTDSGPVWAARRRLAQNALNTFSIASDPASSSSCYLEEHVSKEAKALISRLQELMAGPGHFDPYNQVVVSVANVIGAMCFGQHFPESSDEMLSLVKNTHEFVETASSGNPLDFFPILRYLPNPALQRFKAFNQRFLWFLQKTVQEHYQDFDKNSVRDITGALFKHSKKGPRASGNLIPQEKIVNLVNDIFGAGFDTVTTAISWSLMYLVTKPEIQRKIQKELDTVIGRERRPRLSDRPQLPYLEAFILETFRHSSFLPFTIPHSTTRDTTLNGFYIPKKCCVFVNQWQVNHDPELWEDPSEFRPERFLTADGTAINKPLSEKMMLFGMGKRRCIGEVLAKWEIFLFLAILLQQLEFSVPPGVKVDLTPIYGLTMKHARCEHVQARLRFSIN

rhinovirus A16 = experiment: Antiviral activity against Human rhinovirus 16 infected in human H1-HeLa cells assessed as reduction in virus induced cytopathic effect incubated for 3 days by MTT assay; format: functional, organism-based; conditions: Rhinovirus A, 72 h
CYP2C19 = CYP2C19 (Homo sapiens, UniProt P33261); experiment: Inhibition of human CYP2C19 at 10 uM incubated for 20 mins in presence of NADPH regenerating system by luminescence assay relative to control; format: ADME
CYP2C19, sequence (P33261 whole entry): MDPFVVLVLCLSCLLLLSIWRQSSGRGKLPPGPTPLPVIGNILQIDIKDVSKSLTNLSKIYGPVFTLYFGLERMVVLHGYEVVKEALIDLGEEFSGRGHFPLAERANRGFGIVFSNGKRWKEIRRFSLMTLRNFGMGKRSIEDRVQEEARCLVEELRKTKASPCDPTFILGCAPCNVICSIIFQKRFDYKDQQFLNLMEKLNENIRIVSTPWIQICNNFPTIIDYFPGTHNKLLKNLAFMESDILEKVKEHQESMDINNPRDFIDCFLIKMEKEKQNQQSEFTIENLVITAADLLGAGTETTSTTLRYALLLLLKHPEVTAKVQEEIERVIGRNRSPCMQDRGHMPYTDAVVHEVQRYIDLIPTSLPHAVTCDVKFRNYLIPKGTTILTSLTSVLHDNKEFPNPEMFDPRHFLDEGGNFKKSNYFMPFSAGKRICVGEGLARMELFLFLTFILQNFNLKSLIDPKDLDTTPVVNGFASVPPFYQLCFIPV

[20] = Inhibition of Enterovirus A71 replicon RNA transfected in human H1-HeLa cells assessed as reduction in replication measured after 8 hrs by One-Glo luciferase assay; format: cell-based; conditions: Enterovirus A
Rhinovirus A [21] = experiment: Antiviral activity against Rhinovirus A98 infected in human H1-HeLa cells assessed as reduction in virus induced cytopathic effect incubated for 3 days by MTT assay; format: functional, cell-based; conditions: Rhinovirus A, 98, H1-HeLa, 72 h
CYP2D6 = CYP2D6 (Homo sapiens, UniProt P10635); experiment: Inhibition of human CYP2D6 at 10 uM incubated for 20 mins in presence of NADPH regenerating system by luminescence assay relative to control; format: ADME
CYP2D6, sequence (P10635 whole entry): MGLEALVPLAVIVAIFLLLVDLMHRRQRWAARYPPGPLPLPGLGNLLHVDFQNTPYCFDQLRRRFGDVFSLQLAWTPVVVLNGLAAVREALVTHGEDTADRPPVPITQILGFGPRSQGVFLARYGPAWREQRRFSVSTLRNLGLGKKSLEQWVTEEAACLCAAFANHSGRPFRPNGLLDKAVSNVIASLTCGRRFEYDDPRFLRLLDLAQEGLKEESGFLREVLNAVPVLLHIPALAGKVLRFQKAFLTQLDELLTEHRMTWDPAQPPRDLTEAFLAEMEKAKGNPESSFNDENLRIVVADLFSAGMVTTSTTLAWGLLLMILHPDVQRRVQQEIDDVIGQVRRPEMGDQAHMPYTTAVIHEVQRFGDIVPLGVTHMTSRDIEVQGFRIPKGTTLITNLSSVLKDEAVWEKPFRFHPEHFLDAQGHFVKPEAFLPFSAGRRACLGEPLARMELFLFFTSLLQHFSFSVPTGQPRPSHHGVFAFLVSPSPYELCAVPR

rhinovirus B14 [22] = experiment: Antiviral activity against Human rhinovirus B14 infected in human H1-HeLa cells assessed as reduction in viral titre at early stage at 10 uM pretreated for 1 hr followed by viral infection and measured after 9 hrs by time-of-addition assay; format: functional, organism-based
rhinovirus B14 [23] = experiment: Antiviral activity against Human rhinovirus B14 infected in human H1-HeLa cells assessed as reduction in viral replication by measuring viral titre measured 3 days post infection by crystal violet staining based plaque reduction assay; format: functional, organism-based; conditions: dose 1.1-30 µM, time 3.0 day, DDE = dose-dependent effect
H1-HeLa = experiment: as §1; format: toxicity, cell-based; conditions: h1-hela
rhinovirus B14 [24] = experiment: Antiviral activity against Human rhinovirus B14 infected in human H1-HeLa cells assessed as reduction in viral replication by measuring viral production measured 3 days post infection by crystal violet staining based plaque reduction assay; format: functional, organism-based; conditions: dose 0.4-30 µM, time 3.0 day, DDE = dose-dependent effect
rhinovirus B14 [25] = experiment: Antiviral activity against Human rhinovirus B14 infected in human H1-HeLa cells assessed as reduction in viral titre at 1 uM pretreated for 1 hr followed by viral infection and measured immediately by time-of-addition assay; format: functional, organism-based
[26] = H1-HeLa cells, read-out: Ratio CC50/EC50

CC(C)(C)C1CCc2c(sc3c2c(=O)n(C2CCCC2)c2nncn32)C1 (stereo not given)
selectivity ratio [1]: > 8.2
EC50 (rhinovirus A21; Rhinovirus A, H1-HeLa, 72 h): > 100 µM
EC50 (rhinovirus B14 [2]; Rhinovirus B, H1-HeLa, 72 h): > 100 µM
EC50 ([3]; Rhinovirus A, H1-HeLa, 72 h): 12.1 µM
CC50 [4]: > 100 µM

CCOC(=O)/C=C/[C@H](CC1CCNC1=O)NC(=O)[C@@H](CC(=O)[C@@H](NC(=O)c1cc(C)on1)C(C)C)Cc1ccc(F)cc1 (stereo not given in full)
Activity (rhinovirus B14 [5]): Active

CCCn1c(=O)c2c3c(sc2n2cnnc12)CC(C(C)(C)C)CC3 (stereo in doubt) [listing 1 of 2 here]
inhibition at 20 min, 10 µM (CYP2C9): 11.9%
CC50 [6]: > 30 µM
EC50 (rhinovirus A1B): 1.9 µM
selectivity ratio [1]: 33.2
Tmax [7]: 3.5 h
Ratio CC50/EC50 [8]: 37.2
EC50 (rhinovirus B86): 1.5 µM
EC50 (Coxsackievirus B1): 19.8 µM
EC50 [9]: 1.6 µM
EC50 (Rhinovirus A [10]): 1.5 µM
EC50 (Rhinovirus B [11]): 1.6 µM
AUC(0-t) [12]: 180 ng·h/mL
EC50 (Rhinovirus B [13]): 1.7 µM
EC50 (Poliovirus 3): 1.67 µM
EC50 (rhinovirus A21; h1-hela): 2 µM
Stability [14]: Stable
EC50 (rhinovirus B14 [2]; h1-hela): 1.8 µM
half-life [15]: 8.89 h
AUC(0-inf) [16]: 200 ng·h/mL
EC50 (rhinovirus A2): 1.9 µM
inhibition at 20 min, 10 µM (CYP3A4): 3.24%
Ratio CC50/EC50 [17]: 42.2
Stability [18]: Stable
Cmax [19]: 20 ng/mL
inhibition at 20 min, 10 µM (CYP1A2): 7.46%
EC50 (rhinovirus A16): 1.9 µM
inhibition at 20 min, 10 µM (CYP2C19): 7.19%
EC50 ([3]; Rhinovirus A, H1-HeLa, 72 h): 1.6 µM
CC50 [4]: 77.1 µM
IC50 [20]: 1.7 µM
EC50 (Rhinovirus A [21]): 1.9 µM
inhibition at 20 min, 10 µM (CYP2D6): 1.26%

CCCn1c(=O)c2c3c(sc2n2cnnc12)CC(C(C)(C)C)CC3 (stereo in doubt) [listing 2 of 2 here]
Activity (rhinovirus B14 [22]): Active
Activity (rhinovirus B14 [23]): Dde

CCCn1c(=O)c2c3c(sc2n2cnnc12)CC(C(C)(C)C)CC3 (stereo in doubt; 2c-1)
Ratio CC50/EC50 [1]: > 58.8
Ratio CC50/EC50 [8]: > 27
EC50 (rhinovirus A21; h1-hela): 3.5 µM
EC50 (rhinovirus B14 [2]; h1-hela): 3.7 µM
Ratio CC50/EC50 [17]: > 28.5
EC50 ([3]; h1-hela): 1.7 µM
CC50 (H1-HeLa): > 100 µM

CCCn1c(=O)c2c3c(sc2n2cnnc12)CC(C(C)(C)C)CC3 (stereo in doubt; 2c-2)
Ratio CC50/EC50 [1]: > 52.6
Ratio CC50/EC50 [8]: > 12.8
EC50 (rhinovirus A21; h1-hela): 7.7 µM
EC50 (rhinovirus B14 [2]; h1-hela): 7.8 µM
Ratio CC50/EC50 [17]: > 12.9
EC50 ([3]; h1-hela): 1.9 µM

CN(C)CCC=C1c2ccccc2CCc2ccccc21 [AMITRIPTYLINE]
inhibition at 20 min, 10 µM (CYP2C19): 90.2%

Cc1cc(CCCOc2c(C)cc(-c3noc(C(F)(F)F)n3)cc2C)on1 [PLECONARIL]
EC50 (rhinovirus A1B): 0.24 µM
selectivity ratio [1]: 1700
Activity (rhinovirus B14 [24]): Dde
Activity (rhinovirus B14 [25]): Active
selectivity ratio [8, 26]: 145
EC50 (rhinovirus B86): 0.29 µM
EC50 (Rhinovirus A [10]): 0.45 µM
EC50 (Rhinovirus B [13]): 1.4 µM
EC50 (rhinovirus A21; Rhinovirus A, H1-HeLa, 72 h): 0.17 µM
EC50 (rhinovirus B14 [2]; Rhinovirus B, H1-HeLa, 72 h): 0.2 µM
EC50 (rhinovirus A2): 0.08 µM
selectivity ratio [17, 26]: 161
EC50 (rhinovirus A16): 0.51 µM
EC50 ([3]; Rhinovirus A, H1-HeLa, 72 h): 0.017 µM
CC50 [4]: 20.8 µM

Nc1ccc(S(=O)(=O)Nc2ccnn2-c2ccccc2)cc1 [SULFAPHENAZOLE]
inhibition at 20 min, 10 µM (CYP2C9): 85.8%
